In experiment [1] the test system is HL-60. As to the kind of experiment: Antiproliferative activity against human HL60 cells after 72 hrs by MTT assay. The class given is functional, cell-based. The note with it: HL-60, 72 h.
Experiment [2] concerns HeLa. As to the kind of experiment: Antiproliferative activity against human HeLa cells after 72 hrs by MTT assay. The class given is functional, cell-based.
In experiment [3] the test system is K562. Nature of the experiment: Antiproliferative activity against human K562 cells after 72 hrs by MTT assay. The class given is functional, cell-based. The note with it: K562, 72 h.
Experiment [4] relates to Jurkat. As to the kind of experiment: Antiproliferative activity against human Jurkat cells after 72 hrs by MTT assay. The class given is functional, cell-based. Background: Tetrazolium dyes change colour on reduction, which living cells bring about.
Experiment [5] has as its system MRC5. Nature of the experiment: Antiproliferative activity against human MRC5 cells after 72 hrs by MTT assay. The class given is cell-based. Particulars: MRC5, 72 h.

Structures are written as SMILES. pIC50: −log10 of the molar value.

This is an account of results in ChEMBL document CHEMBL1141718, “Design, synthesis and antiproliferative activity of two new heteroannelated (-)-muricatacin mimics” (Bioorg Med Chem Lett, 2008).

As usually defined, the pIC50 is the IC50 on a negative log10 scale, so that one unit is a factor of ten. A high value points to a small IC50. Consider `CCCCCCCCCCCC[C@@H](O)[C@H]1CCC(=O)O1`, for which the pIC50 in experiment [1] is 4.59; in experiment [2], 6.77; in experiment [3], 7.40; in experiment [4] it was < 4.00; in experiment [5] it was < 4.00.
Regarding `CCCCCCCCCCOC[C@@H]1O[C@H]2CC(=O)O[C@H]2[C@@H]1O`, the negative logarithm of the IC50 (pIC50) in experiment [1] is 6.85; in experiment [2], 6.52; in experiment [3] it was 5.90; in experiment [4] it was < 4.00; in experiment [5] it was < 4.00.
Consider `CCCCCCCCCOC[C@@H]1O[C@H]2CC(=O)O[C@H]2[C@@H]1O`, for which the pIC50 was 5.82 in experiment [1]; 5.02 in experiment [2]; 5.06 in experiment [3]; 5.18 in experiment [4]; < 4.00 in experiment [5].
For `CCCCCCCCCCOC[C@@H](O)[C@H]1CCC(=O)O1`, in that order: 6.82, 4.67, 6.89, 5.52 and < 4.00.
